# What was measured:
# Test in all cases: biochemical
# [1] = biological target: T1, panel of 374 wild-type kinases (Homo sapiens, UniProt Q9BXA6); details: read-out: % Enzyme Activity (relative to DMSO controls), kinase SSTK/TSSK6
# T1 construct: purchased Reaction Biology Corporation
# [2] = biological target: T2, panel of 374 wild-type kinases (Homo sapiens, UniProt P07948); details: read-out: % Enzyme Activity (relative to DMSO controls), LYN
# T2 construct: purchased Reaction Biology Corporation
# T2 sequence (P07948 whole entry): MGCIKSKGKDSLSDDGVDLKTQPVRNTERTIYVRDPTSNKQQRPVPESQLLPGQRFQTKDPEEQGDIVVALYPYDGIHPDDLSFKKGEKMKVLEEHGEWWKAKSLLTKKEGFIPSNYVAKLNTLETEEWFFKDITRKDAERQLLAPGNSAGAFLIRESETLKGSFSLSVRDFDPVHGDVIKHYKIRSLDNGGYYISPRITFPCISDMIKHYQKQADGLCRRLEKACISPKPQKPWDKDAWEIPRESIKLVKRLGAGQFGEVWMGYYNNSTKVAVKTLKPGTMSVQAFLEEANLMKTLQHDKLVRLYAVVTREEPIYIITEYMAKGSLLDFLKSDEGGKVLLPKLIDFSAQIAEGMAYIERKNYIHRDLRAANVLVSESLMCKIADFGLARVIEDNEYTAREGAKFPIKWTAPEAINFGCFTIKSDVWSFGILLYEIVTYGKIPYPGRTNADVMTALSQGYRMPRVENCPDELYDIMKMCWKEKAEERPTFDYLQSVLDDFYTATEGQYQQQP
# [3] = biological target: T3, panel of 374 wild-type kinases (Homo sapiens, UniProt Q8IVH8); details: read-out: % Enzyme Activity (relative to DMSO controls), GLK/MAP4K3
# T3 construct: purchased Reaction Biology Corporation
# T3 sequence (Q8IVH8 1-894): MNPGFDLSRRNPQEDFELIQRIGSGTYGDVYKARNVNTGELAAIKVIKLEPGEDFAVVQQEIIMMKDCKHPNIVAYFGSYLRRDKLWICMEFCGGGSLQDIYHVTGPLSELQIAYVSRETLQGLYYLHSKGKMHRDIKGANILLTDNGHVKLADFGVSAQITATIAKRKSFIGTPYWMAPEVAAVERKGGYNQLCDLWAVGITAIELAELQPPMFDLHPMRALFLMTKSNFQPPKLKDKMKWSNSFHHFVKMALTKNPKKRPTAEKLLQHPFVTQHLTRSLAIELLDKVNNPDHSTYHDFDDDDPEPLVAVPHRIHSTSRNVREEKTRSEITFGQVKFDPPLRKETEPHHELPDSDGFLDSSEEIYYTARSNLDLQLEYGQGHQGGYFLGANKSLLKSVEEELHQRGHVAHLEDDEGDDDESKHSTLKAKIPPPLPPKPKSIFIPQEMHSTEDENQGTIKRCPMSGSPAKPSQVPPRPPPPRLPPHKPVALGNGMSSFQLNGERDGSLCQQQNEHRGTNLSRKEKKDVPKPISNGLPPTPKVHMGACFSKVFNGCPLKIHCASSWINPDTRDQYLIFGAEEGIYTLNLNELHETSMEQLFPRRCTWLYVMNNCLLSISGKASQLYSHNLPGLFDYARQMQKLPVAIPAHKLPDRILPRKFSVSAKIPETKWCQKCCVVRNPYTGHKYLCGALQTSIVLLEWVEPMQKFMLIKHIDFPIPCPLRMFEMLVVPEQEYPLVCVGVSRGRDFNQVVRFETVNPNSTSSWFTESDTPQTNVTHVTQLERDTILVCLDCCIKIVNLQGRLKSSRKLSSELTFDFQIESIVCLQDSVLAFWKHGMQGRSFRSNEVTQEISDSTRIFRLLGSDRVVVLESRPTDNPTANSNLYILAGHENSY
# [4] = biological target: T4, panel of 374 wild-type kinases (Homo sapiens, UniProt Q9NWZ3); details: read-out: % Enzyme Activity (relative to DMSO controls), IRAK4
# T4 construct: purchased Reaction Biology Corporation
# T4 sequence (Q9NWZ3 1-460): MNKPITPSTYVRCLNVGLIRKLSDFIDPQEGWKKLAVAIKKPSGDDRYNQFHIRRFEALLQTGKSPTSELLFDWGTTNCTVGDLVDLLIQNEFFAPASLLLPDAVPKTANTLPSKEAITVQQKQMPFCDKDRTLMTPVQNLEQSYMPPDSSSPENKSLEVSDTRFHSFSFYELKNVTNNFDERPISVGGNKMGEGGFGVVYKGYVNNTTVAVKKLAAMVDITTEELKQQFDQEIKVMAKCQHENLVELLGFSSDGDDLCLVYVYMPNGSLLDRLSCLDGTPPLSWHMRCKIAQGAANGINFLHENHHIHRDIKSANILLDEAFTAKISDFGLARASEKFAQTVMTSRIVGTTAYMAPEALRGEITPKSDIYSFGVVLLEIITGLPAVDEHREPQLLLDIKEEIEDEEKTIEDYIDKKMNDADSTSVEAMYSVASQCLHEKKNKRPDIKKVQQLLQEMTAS
# [5] = biological target: T5, panel of 374 wild-type kinases (Homo sapiens, UniProt Q16288); details: for remaining activity at 5 µM: read-out: % Enzyme Activity (relative to DMSO controls), kinase TRKC
# T5 construct: purchased Reaction Biology Corporation
# T5 sequence (Q16288 32-839): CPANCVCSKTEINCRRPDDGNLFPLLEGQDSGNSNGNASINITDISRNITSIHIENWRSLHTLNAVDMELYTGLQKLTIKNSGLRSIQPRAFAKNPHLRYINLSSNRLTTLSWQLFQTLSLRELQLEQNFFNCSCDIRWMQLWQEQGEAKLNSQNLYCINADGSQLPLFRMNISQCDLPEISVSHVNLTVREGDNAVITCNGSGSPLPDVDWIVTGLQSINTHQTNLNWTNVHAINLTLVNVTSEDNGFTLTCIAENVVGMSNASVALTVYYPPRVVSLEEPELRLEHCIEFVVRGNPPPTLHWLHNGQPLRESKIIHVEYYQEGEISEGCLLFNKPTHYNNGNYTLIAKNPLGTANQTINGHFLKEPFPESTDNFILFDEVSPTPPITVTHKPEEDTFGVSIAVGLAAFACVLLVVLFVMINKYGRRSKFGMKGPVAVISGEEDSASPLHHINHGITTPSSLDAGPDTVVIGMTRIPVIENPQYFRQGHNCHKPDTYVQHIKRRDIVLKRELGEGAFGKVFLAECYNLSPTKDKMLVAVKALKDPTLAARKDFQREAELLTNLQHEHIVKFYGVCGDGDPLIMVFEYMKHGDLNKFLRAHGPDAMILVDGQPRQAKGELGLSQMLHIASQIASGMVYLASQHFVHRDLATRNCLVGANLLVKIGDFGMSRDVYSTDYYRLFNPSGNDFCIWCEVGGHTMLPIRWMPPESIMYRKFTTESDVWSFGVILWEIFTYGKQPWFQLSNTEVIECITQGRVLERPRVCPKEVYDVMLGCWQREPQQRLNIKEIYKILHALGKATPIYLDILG
# [6] = biological target: T6, panel of 374 wild-type kinases (Homo sapiens, UniProt P09619); details: read-out: % Enzyme Activity (relative to DMSO controls), kinase PDGFRb
# T6 construct: purchased Reaction Biology Corporation
# T6 sequence (P09619 33-1106): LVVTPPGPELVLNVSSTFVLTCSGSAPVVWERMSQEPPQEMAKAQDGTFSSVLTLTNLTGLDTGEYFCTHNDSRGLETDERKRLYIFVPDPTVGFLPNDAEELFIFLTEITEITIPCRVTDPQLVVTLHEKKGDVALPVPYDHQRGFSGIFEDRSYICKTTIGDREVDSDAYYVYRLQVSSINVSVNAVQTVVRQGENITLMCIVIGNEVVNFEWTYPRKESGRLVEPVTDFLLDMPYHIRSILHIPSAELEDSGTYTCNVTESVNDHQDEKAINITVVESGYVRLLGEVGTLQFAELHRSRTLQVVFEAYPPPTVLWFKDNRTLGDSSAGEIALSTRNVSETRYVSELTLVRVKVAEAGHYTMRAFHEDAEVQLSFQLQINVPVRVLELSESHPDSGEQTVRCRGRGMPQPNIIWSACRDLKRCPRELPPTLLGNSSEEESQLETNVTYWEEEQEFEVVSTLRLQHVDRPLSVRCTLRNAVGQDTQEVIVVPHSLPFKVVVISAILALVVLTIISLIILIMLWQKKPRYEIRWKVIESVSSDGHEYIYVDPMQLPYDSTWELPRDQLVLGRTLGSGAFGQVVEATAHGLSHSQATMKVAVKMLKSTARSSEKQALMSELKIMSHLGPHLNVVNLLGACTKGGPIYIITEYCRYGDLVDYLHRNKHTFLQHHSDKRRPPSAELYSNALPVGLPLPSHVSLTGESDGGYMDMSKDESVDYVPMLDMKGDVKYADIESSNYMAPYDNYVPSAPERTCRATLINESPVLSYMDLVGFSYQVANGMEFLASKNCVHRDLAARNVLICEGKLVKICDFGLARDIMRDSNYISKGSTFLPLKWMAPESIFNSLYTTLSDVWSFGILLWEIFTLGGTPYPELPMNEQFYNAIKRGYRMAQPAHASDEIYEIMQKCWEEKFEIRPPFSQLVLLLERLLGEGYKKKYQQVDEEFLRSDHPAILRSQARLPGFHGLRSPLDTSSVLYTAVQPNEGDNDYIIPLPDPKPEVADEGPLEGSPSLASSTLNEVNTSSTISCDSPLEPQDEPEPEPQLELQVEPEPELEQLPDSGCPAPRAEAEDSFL
# [7] = biological target: T7, panel of 374 wild-type kinases (Homo sapiens, UniProt P31751); details: read-out: % Enzyme Activity (relative to DMSO controls), AKT2
# T7 construct: purchased Reaction Biology Corporation
# T7 sequence (P31751 whole entry): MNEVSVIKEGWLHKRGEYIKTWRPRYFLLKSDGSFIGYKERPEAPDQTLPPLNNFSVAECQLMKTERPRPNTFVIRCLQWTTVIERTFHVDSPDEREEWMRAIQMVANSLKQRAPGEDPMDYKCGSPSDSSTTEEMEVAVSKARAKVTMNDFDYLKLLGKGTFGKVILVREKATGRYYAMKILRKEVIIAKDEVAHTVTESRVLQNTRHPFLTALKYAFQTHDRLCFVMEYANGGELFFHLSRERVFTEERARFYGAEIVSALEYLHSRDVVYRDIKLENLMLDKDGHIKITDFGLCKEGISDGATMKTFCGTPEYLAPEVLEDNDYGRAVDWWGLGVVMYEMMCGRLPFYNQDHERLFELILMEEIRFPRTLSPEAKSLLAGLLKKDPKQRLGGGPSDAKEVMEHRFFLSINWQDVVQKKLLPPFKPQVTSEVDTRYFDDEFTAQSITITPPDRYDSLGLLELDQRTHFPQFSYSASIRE
# [8] = biological target: T8, panel of 374 wild-type kinases (Homo sapiens, UniProt P50613); details: read-out: % Enzyme Activity (relative to DMSO controls), CDK7/cyclin H
# T8 construct: purchased Reaction Biology Corporation
# T8 sequence (P50613 whole entry): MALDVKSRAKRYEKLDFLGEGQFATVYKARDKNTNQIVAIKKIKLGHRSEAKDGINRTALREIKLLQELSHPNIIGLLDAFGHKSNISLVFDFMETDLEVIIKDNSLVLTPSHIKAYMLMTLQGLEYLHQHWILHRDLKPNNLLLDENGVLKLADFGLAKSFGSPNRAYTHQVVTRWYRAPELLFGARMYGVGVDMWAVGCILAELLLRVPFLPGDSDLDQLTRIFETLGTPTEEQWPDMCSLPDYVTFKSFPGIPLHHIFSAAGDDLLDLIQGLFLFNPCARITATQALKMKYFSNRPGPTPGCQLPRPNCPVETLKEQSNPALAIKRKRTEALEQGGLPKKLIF
# [9] = biological target: T9, panel of 374 wild-type kinases (Homo sapiens, UniProt P07949); details: read-out: % Enzyme Activity (relative to DMSO controls), kinase RET
# T9 construct: purchased Reaction Biology Corporation
# T9 sequence (P07949 29-1114): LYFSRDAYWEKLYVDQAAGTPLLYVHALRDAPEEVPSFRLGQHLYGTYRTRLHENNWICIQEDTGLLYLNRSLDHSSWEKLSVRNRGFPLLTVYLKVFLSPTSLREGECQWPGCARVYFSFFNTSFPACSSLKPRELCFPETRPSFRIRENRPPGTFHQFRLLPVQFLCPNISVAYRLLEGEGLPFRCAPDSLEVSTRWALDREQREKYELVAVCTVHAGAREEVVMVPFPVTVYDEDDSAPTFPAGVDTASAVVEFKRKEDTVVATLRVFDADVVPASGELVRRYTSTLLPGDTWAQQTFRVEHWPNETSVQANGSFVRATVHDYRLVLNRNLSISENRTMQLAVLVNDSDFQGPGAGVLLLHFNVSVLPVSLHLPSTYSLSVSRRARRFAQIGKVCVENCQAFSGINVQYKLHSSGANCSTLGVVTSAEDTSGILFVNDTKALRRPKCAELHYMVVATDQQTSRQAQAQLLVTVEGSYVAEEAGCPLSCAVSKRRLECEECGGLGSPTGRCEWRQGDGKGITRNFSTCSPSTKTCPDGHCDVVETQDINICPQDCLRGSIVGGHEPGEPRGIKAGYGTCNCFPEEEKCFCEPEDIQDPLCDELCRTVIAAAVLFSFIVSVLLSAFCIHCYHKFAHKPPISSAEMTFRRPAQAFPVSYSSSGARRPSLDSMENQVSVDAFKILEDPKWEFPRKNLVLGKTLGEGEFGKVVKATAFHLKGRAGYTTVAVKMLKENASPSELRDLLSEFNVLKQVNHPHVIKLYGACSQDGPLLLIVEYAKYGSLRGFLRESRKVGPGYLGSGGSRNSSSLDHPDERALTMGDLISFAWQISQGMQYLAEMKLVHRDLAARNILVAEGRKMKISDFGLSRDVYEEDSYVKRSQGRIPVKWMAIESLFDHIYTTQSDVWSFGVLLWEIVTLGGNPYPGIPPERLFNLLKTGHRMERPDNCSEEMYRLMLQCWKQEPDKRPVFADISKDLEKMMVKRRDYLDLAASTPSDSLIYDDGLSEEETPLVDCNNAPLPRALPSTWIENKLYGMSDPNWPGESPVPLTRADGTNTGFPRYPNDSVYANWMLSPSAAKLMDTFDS
# [10] = biological target: T10, panel of 374 wild-type kinases (Homo sapiens, UniProt O43781); details: read-out: % Enzyme Activity (relative to DMSO controls), DYRK3
# T10 construct: purchased Reaction Biology Corporation
# T10 sequence (O43781 1-588): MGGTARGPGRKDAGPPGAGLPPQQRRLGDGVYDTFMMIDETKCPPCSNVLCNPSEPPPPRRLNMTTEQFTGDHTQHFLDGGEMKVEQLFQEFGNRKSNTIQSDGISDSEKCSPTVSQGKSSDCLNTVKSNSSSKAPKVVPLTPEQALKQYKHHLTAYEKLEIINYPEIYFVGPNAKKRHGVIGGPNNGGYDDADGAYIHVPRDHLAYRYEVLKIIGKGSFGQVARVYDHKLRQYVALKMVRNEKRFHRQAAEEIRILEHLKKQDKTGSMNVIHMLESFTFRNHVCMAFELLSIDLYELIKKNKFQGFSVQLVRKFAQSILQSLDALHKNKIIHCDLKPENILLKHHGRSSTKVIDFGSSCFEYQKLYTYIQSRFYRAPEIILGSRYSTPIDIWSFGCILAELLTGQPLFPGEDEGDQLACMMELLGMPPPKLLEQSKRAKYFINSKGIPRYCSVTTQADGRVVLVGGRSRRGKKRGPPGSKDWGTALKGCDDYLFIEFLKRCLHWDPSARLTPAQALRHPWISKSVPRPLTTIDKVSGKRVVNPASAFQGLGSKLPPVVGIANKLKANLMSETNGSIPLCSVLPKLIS
# [11] = biological target: T11, panel of 374 wild-type kinases (Homo sapiens, UniProt Q9UIK4); details: read-out: % Enzyme Activity (relative to DMSO controls), DAPK2
# T11 construct: purchased Reaction Biology Corporation
# T11 sequence (Q9UIK4 whole entry): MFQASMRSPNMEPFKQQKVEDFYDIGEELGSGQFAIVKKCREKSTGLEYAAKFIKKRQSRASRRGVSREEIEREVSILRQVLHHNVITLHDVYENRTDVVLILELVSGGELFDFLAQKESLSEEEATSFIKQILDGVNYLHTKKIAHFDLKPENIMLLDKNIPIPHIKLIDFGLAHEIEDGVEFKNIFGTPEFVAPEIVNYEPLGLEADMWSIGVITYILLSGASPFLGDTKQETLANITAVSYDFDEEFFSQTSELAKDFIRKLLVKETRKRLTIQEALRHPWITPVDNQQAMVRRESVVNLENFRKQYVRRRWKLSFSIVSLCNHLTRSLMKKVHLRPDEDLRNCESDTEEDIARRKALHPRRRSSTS
# T1 sequence (Q9BXA6 whole entry): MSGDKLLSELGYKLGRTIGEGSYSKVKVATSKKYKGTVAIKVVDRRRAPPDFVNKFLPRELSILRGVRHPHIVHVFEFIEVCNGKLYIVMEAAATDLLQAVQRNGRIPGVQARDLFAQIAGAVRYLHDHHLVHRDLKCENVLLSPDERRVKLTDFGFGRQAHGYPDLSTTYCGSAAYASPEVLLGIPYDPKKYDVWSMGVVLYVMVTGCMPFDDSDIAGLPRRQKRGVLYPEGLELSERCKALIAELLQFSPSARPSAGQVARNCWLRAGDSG
Structure (SMILES),remaining activity at 5 µM [1] [%],remaining activity at 5 µM [2] [%],remaining activity at 5 µM [3] [%],remaining activity at 5 µM [4] [%],remaining activity at 5 µM [5] [%],remaining activity at 5 µM [6] [%],remaining activity at 5 µM [7] [%],remaining activity at 5 µM [8] [%],remaining activity at 5 µM [9] [%],remaining activity at 5 µM [10] [%],remaining activity at 5 µM [11] [%],also measured
"O=C(Nc1cnn(-c2csc(C(=O)NC3COC3)c2)c1)Nc1ccccc1Cl [Compound 17, 4-(4-(3-(2-chlorophenyl)ureido)-1H-pyrazol-1-yl)-N-(oxetan-3-yl)thiophene-2-carboxamide]",103,96.8,97.5,92.1,64.3,107,89.5,99.7,97.8,93.3,103,
"Cc1sc(C(=O)NC2COC2)cc1-n1cc(NC(=O)Nc2c(F)cccc2Cl)cn1 [Compound 27, 4-(4-(3-(2-chloro-6-fluorophenyl)ureido)-1H-pyrazol-1-yl)-5-methyl-N-(oxetan-3-yl)thiophene-2-carboxamide]",,,,,,,,,,,,"remaining activity at 10 µM ([1]; 10 uM): 94%; remaining activity at 10 µM ([2]; 10 uM): 106%; remaining activity at 10 µM ([3]; 10 uM): 118%; remaining activity at 10 µM ([4]; 10 uM): 103%; remaining activity at 10 µM ([5]; kinase TRKC, 10 uM, read-out: % Enzyme Activity (relative to DMSO controls)): 86%; remaining activity at 10 µM ([6]; 10 uM): 97.9%; remaining activity at 10 µM ([7]; 10 uM): 89.8%; remaining activity at 10 µM ([8]; 10 uM): 103%; remaining activity at 10 µM ([9]; 10 uM): 113%; remaining activity at 10 µM ([10]; 10 uM): 101%; remaining activity at 10 µM ([11]; 10 uM): 99.5%"
"O=C(Nc1cnn(-c2csc(C(=O)NC3COC3)c2)c1)Nc1c(F)cccc1Cl [Compound 25, 4-(4-(3-(2-chloro-6-fluorophenyl)ureido)-1H-pyrazol-1-yl)-N-(oxetan-3-yl)thiophene-2-carboxamide]",103,95.3,100,97.8,38.6,101,104,95.8,98.1,99.2,102,
